Measured values from patent US20250034135A1, “ANTI-APOPTOTIC PROTEIN BCL-2 INHIBITOR, PHARMACEUTICAL COMPOSITION AND USES THEREOF” (HANGZHOU HEALZEN THERAPEUTICS CO., LTD., priority 2021, published 2025).

target: BCL2 (Homo sapiens (Human), UniProt P10415); assay: Molecular level activity test of anti-apoptotic protein BCL2 (HTRF, binding to Bim peptide); conditions: HTRF, binding of BCL2 to Bim peptide; read-out: BCL2 nM (inhibitory activity, IC50)
How it was run: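 Compound (2% DMSO) was mixed with His-tagged recombinant BCL2 and biotinylated Bim peptide for 1 h. Detection used anti-His antibody plus streptavidin-XL665 for 4 h at room temperature, read by time-resolved fluorescence.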

BCL2, sequence (P10415 whole entry): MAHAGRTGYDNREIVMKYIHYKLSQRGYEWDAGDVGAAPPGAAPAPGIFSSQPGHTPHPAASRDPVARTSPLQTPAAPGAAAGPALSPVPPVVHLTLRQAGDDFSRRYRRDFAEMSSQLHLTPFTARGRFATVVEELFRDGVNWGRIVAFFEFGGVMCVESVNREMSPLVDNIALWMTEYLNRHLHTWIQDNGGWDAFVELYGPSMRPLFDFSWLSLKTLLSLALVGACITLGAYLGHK

Row | Structure (SMILES) | IC50
1 | COc1ccc(CN2CCN(C3CC4(CCN(c5ccc(C(=O)NS(=O)(=O)c6cc([N+](=O)[O-])c(NC[C@H]7CC[C@](C)(O)CC7)c7c6OC(F)(F)O7)c(Oc6cnc7[nH]ccc7c6)c5)CC4)C3)[C@H](c3ccccc3C(C)C)C2)cc1 [compound 165, 2-((1H-pyrrolo[2,3-b]pyrid-5-yl)oxy)-N-((2,2-difluoro-7-((((1r, 4r)-4-hydroxy-4-methylcyclohexyl)methyl)amino)-6-nitrobenzo[d][1,3]dioxocyclopent-4-yl)sulfonyl)-4-(2-((R)-2-(2-isopropylphenyl)-4-(4-methoxybenzyl)piperazin-1-yl)-7-azaspiro[3.5]non-7-yl)benzamide] | < 0.01 µM
2 | COc1ccc(CN2CCN(C3CC4(CCN(c5ccc(C(=O)NS(=O)(=O)c6cc([N+](=O)[O-])c(NCC7(F)CCOCC7)c7c6OCO7)c(Oc6cnc7[nH]ccc7c6)c5)CC4)C3)[C@H](c3ccccc3C(C)C)C2)cn1 [compound 166, (R)-2-((1H-pyrrolo[2,3-b]pyrid-5-yl)oxy)-N-((7-(((4-fluorotetrahydro-2H-pyran-4-yl)methyl)amino)-6-nitrobenzo[d][1,3]dioxocyclopent-4-yl)sulfonyl)-4-(2-(2-(2-isopropylphenyl)-4-((6-methoxypyrid-3-yl)methyl)piperazin-1-yl)-7-azaspiro[3.5]non-7-yl)benzamide] | < 0.01 µM
3 | CC(C)c1ccccc1[C@@H]1CN(Cc2ccc(F)cc2)CCN1C1CC2(CCN(c3ccc(C(=O)NS(=O)(=O)c4cc([N+](=O)[O-])c(NCC5(F)CCOCC5)c5c4OCO5)c(Oc4cnc5[nH]ccc5c4)c3)CC2)C1 [compound 167, (R)-2-((1H-pyrrolo[2,3-b]pyrid-5-yl)oxy)-4-(2-(4-(4-fluorobenzyl)-2-(2-isopropylphenyl)piperazin-1-yl)-7-azaspiro[3.5]non-7-yl)-N-((7-(((4-fluorotetrahydro-2H-pyran-4-yl)methyl)amino)-6-nitrobenzo[d][1,3]dioxocyclopent-4-yl)sulfonyl)benzamide] | < 0.01 µM

The next lines start with the values.

Row | IC50 | Structure (SMILES)
4 | < 0.01 µM | COc1ccc(CN2CCN(C3CC4(CCN(c5ccc(C(=O)NS(=O)(=O)c6cc([N+](=O)[O-])c(NC[C@H]7CC[C@](C)(O)CC7)c7c6OC(C)(C)O7)c(Oc6cnc7[nH]ccc7c6)c5)CC4)C3)[C@H](c3ccccc3C(C)C)C2)cc1 [compound 163, 2-((1H-pyrrolo[2,3-b]pyrid-5-yl)oxy)-N-((7-((((1r, 4r)-4-hydroxy-4-methylcyclohexyl)methyl)amino)-2,2-dimethyl-6-nitrobenzo[d][1,3]dioxocyclopent-4-yl)sulfonyl)-4-(2-((R)-2-(2-isopropylphenyl)-4-(4-methoxybenzyl)piperazin-1-yl)-7-azaspiro[3.5]non-7-yl)benzamide]
5 | < 0.01 µM | COc1ccc(CN2CCN(C3CC4(CCN(c5ccc(C(=O)NS(=O)(=O)c6cc([N+](=O)[O-])c(NCC7(F)CCOCC7)c7c6OC(F)(F)O7)c(Oc6cnc7[nH]ccc7c6)c5)CC4)C3)[C@H](c3ccccc3C(C)C)C2)cc1 [compound 164, (R)-2-((1H-pyrrolo[2,3-b]pyrid-5-yl)oxy)-N-((2,2-difluoro-7-(((4-fluorotetrahydro-2H-pyran-4-yl)methyl)amino)-6-nitrobenzo[d][1,3]dioxocyclopent-4-yl)sulfonyl)-4-(2-(2-(2-isopropylphenyl)-4-(4-methoxybenzyl)piperazin-1-yl)-7-azaspiro[3.5]non-7-yl)benzamide]
6 | < 0.01 µM | CC(C)c1ccccc1[C@@H]1CN(Cc2ccc(F)c(F)c2)CCN1C1CC2(CCN(c3ccc(C(=O)NS(=O)(=O)c4cc([N+](=O)[O-])c(NCC5(F)CCOCC5)c5c4OCO5)c(Oc4cnc5[nH]ccc5c4)c3)CC2)C1 [compound 168, (R)-2-((1H-pyrrolo[2,3-b]pyrid-5-yl)oxy)-4-(2-(4-(3,4-difluorobenzyl)-2-(2-isopropylphenyl)piperazin-1-yl)-7-azaspiro[3.5]non-7-yl)-N-((7-(((4-fluorotetrahydro-2H-pyran-4-yl)methyl)amino)-6-nitrobenzo[d][1,3]dioxocyclopent-4-yl)sulfonyl)benzamide]
